Tests used:
[1] = tested on: NCI-H358 cells; assay: 3D cell proliferation assay (Cell Titer-Glo 3D, 7 days); type: cell-based; details: Homo sapiens, NCI-H358, 168 h, NCI-H358 3D, ultra-low attachment plate
Procedure: NCI-H358 cells (ATCC® CRL-5807™) were plated in a 384-well Black/Clear Round Bottom Ultra-Low Attachment Microplate (Corning) in medium (RPMI-1640+10% FBS) at a density of 1000 cells in 50 μL per well, then incubated overnight at 37° C. and 5% CO2. Cells were treated with test compounds at 9 concentrations within a specified concentration range (e.g., 0.5 nM-10 μM) for generation of dose response curves. Test compounds were prepared by 1:3 serial dilution in DMSO from a specified starting concentration (e.g., 20 μM, 2 μM or 0.2 μM) and then added to wells of the assay plate in a total volume of 150 nL DMSO. The cells were further incubated at 37° C. and 5% CO2 for 7 days. Cell viability was assessed by adding 40 μL of Cell Titer-Glo® 3D reagent (Cat. No.: G9683, Promega) to each well and reading luminescence after mixing and incubation of the samples. The IC50 value of each test compound was calculated with XLFit curve fitting software.

[2] = tested on: Phosphorylation of ERK in NCI-H358 cells; assay: pERK assay (Method II, homogeneous TR-FRET); type: cell-based; details: Homo sapiens, 4 hrs compound treatment
Procedure: Method II. Phosphorylation of ERK was assessed by a homogeneous TR-FRET assay (Advanced phospho-ERK (Thr202/Tyr204) cellular kit; Cat. #64AERPEH, Cisbio). In brief, NCI-H358 cells were seeded in a 384-well culture plate at a density of 6000 cells in 40 μL medium/well and grown overnight at 37° C. and 5% CO2. Each test compound was dosed in duplicate in a 10-dose 3-fold titration starting at 10 μM or 2 μM. The culture plate was then incubated for 4 hrs in the incubator. At the end of the compound treatment, the medium was removed, 35 μL of lysis buffer was added to each well, and the plate was agitated on a plate shaker for 40 mins at 4° C. An antibody cocktail of phospho-ERK1/2 Eu Cryptate antibody and Phospho-ERK1/2 d2 antibody was prepared by separately diluting the antibodies 20-fold with detection buffer and then mixing them together. 3.4 μL of antibody cocktail was dispensed to each well of an empty 384-well white ProxiPlus assay plate (Perkin Elmer), and the plate briefly centrifuged. 13.6 μL of cell lysate was then added to the antibody-containing wells, and the plate was briefly centrifuged and then incubated 2 hrs at room temperature. The plate was read on a fluorescence plate reader (Envision2104, Perkin Elmer), with an excitation wavelength of 337 nm and emission wavelengths of 615 nm and 665 nm. The IC50 value of each test compound was calculated with XLFit curve fitting software. Results are shown in Table 6. ‘+++’ indicates IC50 values≤300 nM, ‘++’ indicates IC50 values between 300 nM-3 μM, and ‘+’ indicates IC50 values≥3 μM.

[3] = tested on: MIA PaCa-2; assay: Cell proliferation assay panel (Cell Titer-Glo, 72 hr); type: cell-based; details: Homo sapiens, MIA PaCa-2, 72 h
Procedure: Potency of compounds was determined in cell proliferation assays in a panel of cancer cell lines. Cells were seeded in 384-well plates (Corning, Cat. #3765) at specified densities in 40 μL of culture medium and incubated overnight at 37° C. in a 5% CO2 incubator (culture conditions). With a robotic dispenser, serially diluted test compounds were added in a volume of 20 nL DMSO to wells in the culture plate to achieve the final desired concentrations of test compounds, and the cells were further incubated in culture conditions for 72 hr. The assay was terminated by addition of 25 μL of Cell Titer-Glo reagent (Promega, Madison, Wis.) to each well. Contents were mixed, the plate was incubated for 10 min at room temperature and luminescence was measured. The IC50 value of each test compound was calculated with XLFit curve fitting software. Results are shown in Table 4. ‘+++’ indicates IC50 values≤300 nM, ‘++’ indicates IC50 values between 300 nM-3 μM, and ‘+’ indicates IC50 values≥3 μM.

[4] = target: KRAS G12C protein (Homo sapiens, UniProt P01116, G12C); assay: Nucleotide exchange assay (Method III, KRAS G12C/Raf-RBD TR-FRET); type: biochemical; details: SOS1-mediated exchange of GDP for GTP, 18 hr compound incubation
Procedure: Method III. Inhibition of SOS1-mediated exchange of GDP for GTP on the KRAS G12C protein was measured in a biochemical assay that monitors association of KRAS G12C protein with the Ras-binding domain of Raf (Raf-RBD), where the association is coupled to exchange of GDP to GTP on the KRAS G12C protein. The assay was performed at WuXi AppTec (Shanghai, China). Compounds were serially diluted in 3-fold dilutions to 11 concentrations and spotted into the wells of an assay plate in a total volume of 150 nL DMSO per well. A 2× enzyme mix was prepared by diluting GDP-bound, His-tagged KRAS G12C to 25 nM in assay buffer. 10 μL/well of 2× enzyme mix was added to all wells, and the plate was sealed and incubated overnight (18 hr) at 23° C. 4×SOS1/GDP and 4×SOS1/GTP were prepared in assay buffer. 5 μL/well of 4×SOS1/GDP mix was added to negative control wells, 5 μL/well of 4×SOS1/GTP mix was added to the remaining wells, and the plate was further incubated at 23° C. for 1 hr. Finally, FLAG-tagged Raf-RBD is added to the reaction mixture along with a pair of FRET donor- and acceptor-conjugated antibodies specific for the FLAG-tagged Raf-RBD and His-tagged KRAS G12C proteins. A 4×Raf-RBD/Tb-anti-FLAG/D2-anti-His mix was prepared in assay buffer, and 5 μL/well of the mix was added to all wells, followed by incubation at room temperature for 2 hr. The TR-FRET signals, which increase with association of KRAS G12C and Raf-RBD, were measured on a Perkin Elmer Envision 2104 plate reader, and data were analyzed by non-linear regression to obtain IC50 values for inhibition by compounds. Table 2 includes results of the assay of Method III. ‘+++’ indicates IC50 values≤300 nM, ‘++’ indicates IC50 values between 300 nM-3 μM, and ‘+’ indicates IC50 values≥3 μM.

KRAS G12C protein, sequence (P01116 1-188 isoform P01116-2 G12C): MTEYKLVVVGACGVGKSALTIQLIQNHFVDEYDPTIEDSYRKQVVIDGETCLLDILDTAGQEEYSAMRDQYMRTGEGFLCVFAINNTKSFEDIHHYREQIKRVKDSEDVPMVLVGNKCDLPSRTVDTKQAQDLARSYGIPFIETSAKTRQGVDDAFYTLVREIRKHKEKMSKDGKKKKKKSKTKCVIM

Structure (SMILES) | IC50 [1] [nM] | IC50 [2] [nM] | IC50 [3] [nM] | IC50 [4] [nM]
C=C(F)C(=O)N1CCN(c2nc(OC[C@@H]3CCCN3C)nc3c2COC(c2c(C)ccc4[nH]ncc24)C3)C[C@@H]1CC#N (single isomer, unassigned) [52 (Isomer B)] | 100 to 2000 | 300 to 3000 | 300 to 3000 | ≤ 300
CC#CC(=O)N1CCN(c2nc(OC[C@@H]3CCCN3C)nc3c2COC(c2cccc4cccc(Cl)c24)C3)C[C@@H]1CC#N (single isomer, unassigned) [243 (Isomer B)] | ≤ 100 | ≤ 300 | ≤ 300 | ≤ 300
C/C=C/C(=O)N1CCN(c2nc(OC[C@@H]3CCCN3C)nc3c2COC(c2cccc4cccc(Cl)c24)C3)C[C@@H]1CC#N (single isomer, unassigned) [241 (Isomer A)] | ≤ 100 | ≤ 300 | 300 to 3000 | ≤ 300
